Source: the supplement of paper PMC5908809

Key:
[1] = test system: normal NK cells expanded with K562-aAPC; experiment: percent inhibition of viability; higher = more inhibition; conditions: 72 h, IL-2 2.5 ng/mL
Method: (§1)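 Drug sensitivity and resistance testing on K562-aAPC-expanded normal NK cells: 5 concentrations (10-fold steps over a 10,000-fold range), 72 h at 37 °C, viability by CellTiter-Glo normalised to DMSO and benzethonium chloride controls; DSS from the fitted curve.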

DERL-7 (IL-2 2.5 ng/mL) [2] = experiment: as above; conditions: 72 h
IMC-1 (IL-2 20 ng/mL) [3] = experiment: as above; conditions: 72 h
KAI3 (IL-2 2.5 ng/mL) [4] = experiment: as above; conditions: 72 h
KHYG-1 (IL-2 2.5 ng/mL) [5] = experiment: as above; conditions: 72 h
NK-92 (IL-2 2.5 ng/mL) [6] = experiment: as above; conditions: 72 h
NK-YS (IL-2 2.5 ng/mL) [7] = experiment: as above; conditions: 72 h
NKL (IL-2 2.5 ng/mL) [8] = experiment: as above; conditions: 72 h
SNK-6 (IL-2 2.5 ng/mL) [9] = experiment: as above; conditions: 72 h
YT (IL-2 2.5 ng/mL) [10] = experiment: as above; conditions: 72 h
[11] = test system: normal primary NK cells, pool 1 (3 donors) (IL-2 2.5 ng/mL); experiment: as above; conditions: 72 h
[12] = test system: normal primary NK cells, pool 1 (3 donors), resting (IL-2 0 ng/mL); experiment: as above; conditions: 72 h
[13] = test system: normal primary NK cells, pool 2 (3 donors) (IL-2 2.5 ng/mL); experiment: as above; conditions: 72 h
[14] = test system: normal primary NK cells, pool 3 (3 donors) (IL-2 2.5 ng/mL); experiment: as above; conditions: 72 h
[15] = test system: normal NK cells expanded with K562-aAPC; experiment: drug sensitivity score (DSS) (DSS units); higher = more sensitive; extreme values may be limits of the assay; conditions: 72 h; IL-2 2.5 ng/mL
Method: as §1

DERL-7 (IL-2 2.5 ng/mL) [16] = experiment: as above; conditions: 72 h
IMC-1 (IL-2 20 ng/mL) [17] = experiment: as above; conditions: 72 h
KAI3 (IL-2 2.5 ng/mL) [18] = experiment: as above; conditions: 72 h
KHYG-1 (IL-2 2.5 ng/mL) [19] = experiment: as above; conditions: 72 h
NK-92 (IL-2 2.5 ng/mL) [20] = experiment: as above; conditions: 72 h
NK-YS (IL-2 2.5 ng/mL) [21] = experiment: as above; conditions: 72 h
NKL (IL-2 2.5 ng/mL) [22] = experiment: as above; conditions: 72 h
SNK-6 (IL-2 2.5 ng/mL) [23] = experiment: as above; conditions: 72 h
YT (IL-2 2.5 ng/mL) [24] = experiment: as above; conditions: 72 h
[25] = test system: normal primary NK cells, pool 1 (3 donors) (IL-2 2.5 ng/mL); experiment: as above; conditions: 72 h
[26] = test system: normal primary NK cells, pool 1 (3 donors), resting (IL-2 0 ng/mL); experiment: as above; conditions: 72 h
[27] = test system: normal primary NK cells, pool 2 (3 donors) (IL-2 2.5 ng/mL); experiment: as above; conditions: 72 h
[28] = test system: normal primary NK cells, pool 3 (3 donors) (IL-2 2.5 ng/mL); experiment: as above; conditions: 72 h

CC(C)C[C@H](NC(=O)[C@@H](COC(C)(C)C)NC(=O)[C@H](Cc1ccc(O)cc1)NC(=O)[C@H](CO)NC(=O)[C@H](Cc1c[nH]c2ccccc12)NC(=O)[C@H](Cc1cnc[nH]1)NC(=O)[C@@H]1CCC(=O)N1)C(=O)N[C@@H](CCCNC(=N)N)C(=O)N1CCC[C@H]1C(=O)NNC(N)=O [Goserelin] (max concentration tested 10000 nM)
percent inhibition of viability [%]
Conditions | 1 nM | 10 nM | 100 nM | 1000 nM | 10000 nM
DERL-7 (IL-2 2.5 ng/mL) [2] | 0.68 | -4.54 | -4.5 | -0.44 | -4.02
IMC-1 (IL-2 20 ng/mL) [3] | -8.43 | -3.76 | -4.51 | -0.15 | 11.2
KAI3 (IL-2 2.5 ng/mL) [4] | -6.09 | -9.54 | -7.05 | 1.42 | 21.1
KHYG-1 (IL-2 2.5 ng/mL) [5] | -5.2 | -3.78 | -7.91 | -4.87 | 6.57
NK-92 (IL-2 2.5 ng/mL) [6] | -9.16 | -10.9 | -7.22 | -12.8 | 20.7
NK-YS (IL-2 2.5 ng/mL) [7] | -9.13 | -9.66 | -6.69 | -6.01 | 6.61
NKL (IL-2 2.5 ng/mL) [8] | -13.2 | -11.5 | -12.2 | 0.66 | 14.8
SNK-6 (IL-2 2.5 ng/mL) [9] | -19.4 | -9.63 | -24.4 | -13.4 | -9.52
YT (IL-2 2.5 ng/mL) [10] | -6.11 | -8.09 | -5.17 | -3.36 | 20.9
[1] | -6.58 | -6.46 | -10.9 | -5.02 | 13.2
[11] | 2.55 | -1.49 | 10.9 | 10.5 | -0.05
[12] | -2.06 | 1.54 | 20.9 | 19.8 | 15.1
[13] | -6.03 | -6.27 | -2.35 | 5.13 | 11.8
[14] | -3.77 | -5.54 | 7.78 | 0.8 | -2.53

Conditions | drug sensitivity score
DERL-7 (IL-2 2.5 ng/mL) [16] | 0
IMC-1 (IL-2 20 ng/mL) [17] | 0.01
KAI3 (IL-2 2.5 ng/mL) [18] | 0.84
KHYG-1 (IL-2 2.5 ng/mL) [19] | 0
NK-92 (IL-2 2.5 ng/mL) [20] | 0.34
NK-YS (IL-2 2.5 ng/mL) [21] | 0
NKL (IL-2 2.5 ng/mL) [22] | 0.26
SNK-6 (IL-2 2.5 ng/mL) [23] | 0
YT (IL-2 2.5 ng/mL) [24] | 0.49
[15] | 0.04
[25] | 0
[26] | 5.4
[27] | 0.22
[28] | 0

COc1cc2c(cc1-c1c(C)noc1C)ncc1[nH]c(=O)n([C@H](C)c3ccccn3)c12 [I-BET151] (max concentration tested 10000 nM)
percent inhibition of viability [%]
Conditions | 1 nM | 10 nM | 100 nM | 1000 nM | 10000 nM
DERL-7 (IL-2 2.5 ng/mL) [2] | -3.21 | -1.77 | 20 | 81.5 | 100
IMC-1 (IL-2 20 ng/mL) [3] | -10.4 | -6.13 | -13.8 | 11.4 | 80.4
KAI3 (IL-2 2.5 ng/mL) [4] | -1.82 | -7.24 | -5.5 | 36.7 | 60.8
KHYG-1 (IL-2 2.5 ng/mL) [5] | -6.56 | -3.86 | 2.8 | 72 | 98.6
NK-92 (IL-2 2.5 ng/mL) [6] | -10.1 | -10.2 | -33.2 | -7 | 39.9
NK-YS (IL-2 2.5 ng/mL) [7] | -6.04 | 0.41 | 9.82 | 50.3 | 86
NKL (IL-2 2.5 ng/mL) [8] | -4.89 | -7.31 | 11.6 | 58.9 | 75
SNK-6 (IL-2 2.5 ng/mL) [9] | -9.22 | -7.3 | 19.2 | 71.4 | 58.4
YT (IL-2 2.5 ng/mL) [10] | -4.09 | -3.54 | -0.4 | 36.2 | 69.4
[1] | -4.2 | -5.61 | -3.72 | 17.1 | 70.7
[11] | 4.94 | 14.1 | 16.8 | 34.1 | 86.3
[12] | 11.1 | 15.2 | 12.9 | 26.3 | 69
[13] | -6.96 | -4.14 | 1.63 | 30.1 | 81.5
[14] | 0.13 | -4.21 | 7.82 | 12.9 | 73.7

Conditions | drug sensitivity score
DERL-7 (IL-2 2.5 ng/mL) [16] | 17.4
IMC-1 (IL-2 20 ng/mL) [17] | 6.36
KAI3 (IL-2 2.5 ng/mL) [18] | 7.74
KHYG-1 (IL-2 2.5 ng/mL) [19] | 14.1
NK-92 (IL-2 2.5 ng/mL) [20] | 1.57
NK-YS (IL-2 2.5 ng/mL) [21] | 11.1
NKL (IL-2 2.5 ng/mL) [22] | 12.4
SNK-6 (IL-2 2.5 ng/mL) [23] | 16.1
YT (IL-2 2.5 ng/mL) [24] | 8.36
[15] | 6.57
[25] | 9.37
[26] | 7.37
[27] | 8.63
[28] | 6.22
